The structures appear in SMILES notation.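 Following 48 hours of exposure in 96-well plates, responses at five concentrations were used to interpolate endpoints linearly. Here, GI50 denotes the concentration required for 50% inhibition of growth.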 The source made the active and inactive calls. No stated cut-off is given here; in the data, active = GI50 up to about 1.1 µM and inactive = higher.

Test systems include LOX IMVI; TK-10; OVCAR-3; SN12C; ACHN; U-251; A498; OVCAR-5; SF-539; EKVX; MDA-MB-231; NCI-H522; NCI-H23; SNB-75; NCI-H460; HL-60; OVCAR-4; MDA-N; NCI-H226; MDA-MB-435.
Assay in all cases: NCI-60 cell line screen, 48 h

As to `Cc1ccc(-c2ccc3c(c2)Sc2ccccc2O3)n1C`, the GI50 in the assay with LOX IMVI was 0.524 µM (active); in the assay on TK-10 it was 0.627 µM (active); in the assay with OVCAR-3, 0.373 µM (active); in the assay on SN12C it was 0.306 µM (active); with ACHN, 3.57 µM (inactive); with U-251, 0.329 µM (active). In addition, the GI50 in the assay with A498 is 0.416 µM (active); with OVCAR-5, 0.809 µM (active); in the assay on SF-539, 0.308 µM (active); in the assay on EKVX, 0.618 µM (active); in the assay with MDA-MB-231 it was 1.19 µM (inactive); with NCI-H522 it was 0.0564 µM (active). Further, the GI50 in the assay with NCI-H23 was 0.908 µM (active); with SNB-75 it was 0.238 µM (active); in the assay with NCI-H460, 0.327 µM (active); in the assay on HL-60 it was 0.125 µM (active); in the assay with OVCAR-4, 1.32 µM (inactive); in the assay on MDA-N it was 0.0285 µM (active). Also, the GI50 with NCI-H226 is 19.9 µM (inactive); with MDA-MB-435, 0.0263 µM (active).

As for `C=CCSC(C)=O`, the GI50 in the assay with LOX IMVI, in the assay on TK-10, with OVCAR-3, in the assay with SN12C, with ACHN and in the assay on U-251 was > 100 µM (inactive) throughout. Further, the GI50 was > 100 µM (inactive) with A498; > 100 µM (inactive) in the assay with OVCAR-5; > 100 µM (inactive) in the assay on SF-539; > 100 µM (inactive) with EKVX; > 100 µM (inactive) with MDA-MB-231; 98.9 µM (inactive) in the assay with NCI-H522. Besides, the GI50 in the assay on NCI-H23, in the assay with SNB-75, with NCI-H460, in the assay on HL-60, in the assay on OVCAR-4 and with MDA-N was > 100 µM (inactive) throughout. In addition, the GI50 in the assay with NCI-H226 and with MDA-MB-435 was > 100 µM (inactive) throughout.

For `CCCCC(=O)OC[n+]1ccc2c(C)c3[nH]c4ccc(OC)cc4c3c(C)c2c1`, the GI50 with LOX IMVI is 0.271 µM (active); in the assay with TK-10 it was 2.64 µM (inactive); in the assay with OVCAR-3 it was 0.76 µM (active); in the assay on SN12C it was 0.146 µM (active); in the assay on ACHN it was 0.0938 µM (active); with U-251, 0.348 µM (active). Besides, the GI50 is 0.923 µM (active) in the assay with A498; 1.67 µM (inactive) with OVCAR-5; 0.367 µM (active) in the assay on SF-539; 1.14 µM (inactive) in the assay on EKVX; 0.185 µM (active) with MDA-MB-231; 0.695 µM (active) with NCI-H522. In addition, the GI50 in the assay with NCI-H23 was 0.536 µM (active); in the assay on SNB-75, 1.07 µM (active); with NCI-H460, 0.0736 µM (active); in the assay with HL-60, 0.422 µM (active); in the assay with OVCAR-4, 0.796 µM (active); in the assay with MDA-N, 0.321 µM (active). Besides, the GI50 was 0.562 µM (active) in the assay on NCI-H226 and 0.461 µM (active) with MDA-MB-435.

Take `Brc1ccc2c(-c3nc(-c4c[nH]c5ccc(Br)cc45)cs3)c[nH]c2c1`: the GI50 was 2.32 µM (inactive) in the assay with LOX IMVI; 5.51 µM (inactive) in the assay with TK-10; 10.2 µM (inactive) in the assay with OVCAR-3; 4.63 µM (inactive) with SN12C; 1.67 µM (inactive) in the assay with ACHN; 4.43 µM (inactive) in the assay with U-251. Besides, the GI50 in the assay with A498 was 2.41 µM (inactive); in the assay with OVCAR-5 it was 2.96 µM (inactive); with SF-539 it was 5.06 µM (inactive); in the assay with EKVX, 1.24 µM (inactive); in the assay with MDA-MB-231, 3.69 µM (inactive); with NCI-H522 it was 1.95 µM (inactive). For the same molecule, the GI50 in the assay with NCI-H23 was 3.24 µM (inactive); with SNB-75 it was 14.5 µM (inactive); in the assay with NCI-H460, 2.68 µM (inactive); in the assay on HL-60, 6.43 µM (inactive); in the assay with OVCAR-4 it was 9.33 µM (inactive); in the assay on MDA-N, 4.45 µM (inactive). Besides, the figures for the GI50 with NCI-H226 and in the assay with MDA-MB-435 were 1.94 µM (inactive) and 5.26 µM (inactive), respectively.

With `CC(=O)OC/C=C(\C)CCC(Br)C(C)(C)Br` (stereo not given), the GI50 in the assay on LOX IMVI, in the assay on TK-10, with OVCAR-3, in the assay on SN12C, with ACHN and with U-251 was > 10 µM (inactive) throughout. Also, the GI50 in the assay on A498, in the assay on OVCAR-5, in the assay on SF-539, with EKVX, in the assay on MDA-MB-231 and with NCI-H522 was > 10 µM (inactive) throughout. For the same molecule, the GI50 with NCI-H23, with SNB-75, in the assay with NCI-H460, with HL-60, with OVCAR-4 and in the assay on MDA-N was > 10 µM (inactive) in each case. Also, the GI50 in the assay with NCI-H226 and in the assay with MDA-MB-435 was > 10 µM (inactive) each time.

As to `O=Cc1ccc(-c2nccc3c2[nH]c2ccccc23)o1`, the GI50 with LOX IMVI is > 56.2 µM (inactive); in the assay on TK-10 it was 7.36 µM (inactive); with OVCAR-3 it was > 75.7 µM (inactive); in the assay with SN12C it was > 100 µM (inactive); in the assay on ACHN it was > 100 µM (inactive); in the assay on U-251, 68.9 µM (inactive). Moreover, the GI50 in the assay with A498 was 0.585 µM (active); in the assay on OVCAR-5 it was 12.3 µM (inactive); in the assay on SF-539, > 100 µM (inactive); in the assay on EKVX it was > 100 µM (inactive); in the assay with MDA-MB-231, > 85.1 µM (inactive); in the assay with NCI-H522, 64.4 µM (inactive). Also, the GI50 was > 100 µM (inactive) in the assay on NCI-H23; > 100 µM (inactive) with SNB-75; 38.9 µM (inactive) with NCI-H460; 74.8 µM (inactive) in the assay on HL-60; 89.5 µM (inactive) in the assay on OVCAR-4; > 100 µM (inactive) in the assay with MDA-N. In addition, the results for the GI50 in the assay on NCI-H226 and in the assay with MDA-MB-435 were 1.31 µM (inactive) and > 100 µM (inactive), respectively.

For the molecule `Clc1cccc(/C=N/C23CC4CC(CC(C4)C2)C3)c1Cl`, the GI50 with LOX IMVI, in the assay on TK-10, in the assay with OVCAR-3, with SN12C, with ACHN and with U-251 was > 10 µM (inactive) in each case. For the same molecule, the GI50 in the assay with A498, with OVCAR-5, in the assay with SF-539, in the assay with EKVX, in the assay on MDA-MB-231 and in the assay with NCI-H522 was > 10 µM (inactive) each time. Further, the GI50 with NCI-H23 was > 10 µM (inactive); in the assay on SNB-75, 5.36 µM (inactive); in the assay with NCI-H460 it was > 10 µM (inactive); in the assay with HL-60, 6.28 µM (inactive); in the assay with OVCAR-4, > 10 µM (inactive); in the assay with MDA-N it was > 10 µM (inactive). Also, the GI50 in the assay on NCI-H226 and with MDA-MB-435 was > 10 µM (inactive) each time.

For `O=C1OCOC2(CCCC2)C1c1ccccc1` (stereo not given), the GI50 with LOX IMVI, with TK-10, in the assay on OVCAR-3, with SN12C, in the assay with ACHN and with U-251 was > 100 µM (inactive) in each case. Further, the GI50 in the assay on A498, in the assay on OVCAR-5, with SF-539, with EKVX, with MDA-MB-231 and in the assay on NCI-H522 was > 100 µM (inactive) in each case. The GI50 in the assay on NCI-H23, with SNB-75, in the assay with NCI-H460, with HL-60, in the assay on OVCAR-4 and with MDA-N was > 100 µM (inactive) in each case. Moreover, the GI50 with NCI-H226 and with MDA-MB-435 was > 100 µM (inactive) each time.

`Cn1c(N2CCCC2)c(C=O)c(=O)n(C)c1=O`: the GI50 in the assay with LOX IMVI, in the assay on TK-10, in the assay with OVCAR-3, with SN12C, in the assay with ACHN and in the assay on U-251 was > 100 µM (inactive) in each case. Moreover, the GI50 with A498, with OVCAR-5, with SF-539, in the assay on EKVX, in the assay with MDA-MB-231 and with NCI-H522 was > 100 µM (inactive) throughout. In addition, the GI50 in the assay with NCI-H23 was > 100 µM (inactive); in the assay on SNB-75, 14.1 µM (inactive); with NCI-H460 it was > 100 µM (inactive); in the assay on HL-60 it was > 100 µM (inactive); with OVCAR-4 it was > 100 µM (inactive); with MDA-N, > 100 µM (inactive). Also, the results for the GI50 with NCI-H226 and in the assay on MDA-MB-435 were 51.8 µM (inactive) and > 100 µM (inactive), respectively.

For the molecule `CN(C)CCn1c(=O)c2ccc(NCCNCCO)c3c(=O)c4ccccc4n(c1=O)c23`, the GI50 in the assay with LOX IMVI is 0.0341 µM (active); with TK-10 it was 0.764 µM (active); in the assay on OVCAR-3 it was 0.288 µM (active); in the assay on SN12C, 0.0206 µM (active); with ACHN it was 0.0116 µM (active); in the assay on U-251, 0.0468 µM (active). Moreover, the GI50 in the assay on A498 is 0.106 µM (active); in the assay on OVCAR-5, 0.298 µM (active); with SF-539 it was 0.0428 µM (active); in the assay on EKVX, 0.231 µM (active); in the assay on MDA-MB-231, 0.22 µM (active); in the assay on NCI-H522 it was 0.0581 µM (active). The GI50 was 0.0342 µM (active) in the assay on NCI-H23; 0.0445 µM (active) in the assay with SNB-75; < 0.01 µM (active) in the assay with NCI-H460; < 0.01 µM (active) in the assay with HL-60; 0.514 µM (active) in the assay on OVCAR-4; 0.328 µM (active) in the assay on MDA-N. Besides, the GI50 with NCI-H226 is 0.0348 µM (active); with MDA-MB-435, 0.228 µM (active).

The record behind these values is ChEMBL document CHEMBL1201862, “PubChem BioAssay data set” (2004).
